This is an account of results in ChEMBL document CHEMBL1201862, “PubChem BioAssay data set” (2004).

Active and inactive are the calls of the source. Bounds are passed on as bounds.

The target of one assay is T1, Protein skinhead-1 (Caenorhabditis elegans, UniProt P34707).
T1 sequence (P34707 whole entry): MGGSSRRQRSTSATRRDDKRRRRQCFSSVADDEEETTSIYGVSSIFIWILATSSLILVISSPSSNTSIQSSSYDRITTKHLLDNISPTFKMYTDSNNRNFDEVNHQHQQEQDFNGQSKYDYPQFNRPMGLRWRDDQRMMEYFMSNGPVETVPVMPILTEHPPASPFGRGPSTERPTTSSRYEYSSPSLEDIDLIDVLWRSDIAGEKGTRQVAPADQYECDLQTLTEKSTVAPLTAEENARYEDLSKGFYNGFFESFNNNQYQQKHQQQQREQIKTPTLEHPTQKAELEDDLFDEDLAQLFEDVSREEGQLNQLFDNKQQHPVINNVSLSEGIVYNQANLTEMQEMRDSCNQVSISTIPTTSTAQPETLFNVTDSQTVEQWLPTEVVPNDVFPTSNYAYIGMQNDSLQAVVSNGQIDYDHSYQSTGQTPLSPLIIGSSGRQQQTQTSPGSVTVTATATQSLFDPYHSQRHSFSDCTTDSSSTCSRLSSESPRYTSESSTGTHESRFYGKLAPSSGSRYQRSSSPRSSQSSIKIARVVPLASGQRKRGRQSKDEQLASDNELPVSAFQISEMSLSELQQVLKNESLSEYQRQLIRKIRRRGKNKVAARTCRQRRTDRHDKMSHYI
The class given is functional.

The target of assay [1] is T2, Short transient receptor potential channel 4 (Mus musculus, UniProt Q9QUQ5).
T2 sequence (Q9QUQ5 whole entry): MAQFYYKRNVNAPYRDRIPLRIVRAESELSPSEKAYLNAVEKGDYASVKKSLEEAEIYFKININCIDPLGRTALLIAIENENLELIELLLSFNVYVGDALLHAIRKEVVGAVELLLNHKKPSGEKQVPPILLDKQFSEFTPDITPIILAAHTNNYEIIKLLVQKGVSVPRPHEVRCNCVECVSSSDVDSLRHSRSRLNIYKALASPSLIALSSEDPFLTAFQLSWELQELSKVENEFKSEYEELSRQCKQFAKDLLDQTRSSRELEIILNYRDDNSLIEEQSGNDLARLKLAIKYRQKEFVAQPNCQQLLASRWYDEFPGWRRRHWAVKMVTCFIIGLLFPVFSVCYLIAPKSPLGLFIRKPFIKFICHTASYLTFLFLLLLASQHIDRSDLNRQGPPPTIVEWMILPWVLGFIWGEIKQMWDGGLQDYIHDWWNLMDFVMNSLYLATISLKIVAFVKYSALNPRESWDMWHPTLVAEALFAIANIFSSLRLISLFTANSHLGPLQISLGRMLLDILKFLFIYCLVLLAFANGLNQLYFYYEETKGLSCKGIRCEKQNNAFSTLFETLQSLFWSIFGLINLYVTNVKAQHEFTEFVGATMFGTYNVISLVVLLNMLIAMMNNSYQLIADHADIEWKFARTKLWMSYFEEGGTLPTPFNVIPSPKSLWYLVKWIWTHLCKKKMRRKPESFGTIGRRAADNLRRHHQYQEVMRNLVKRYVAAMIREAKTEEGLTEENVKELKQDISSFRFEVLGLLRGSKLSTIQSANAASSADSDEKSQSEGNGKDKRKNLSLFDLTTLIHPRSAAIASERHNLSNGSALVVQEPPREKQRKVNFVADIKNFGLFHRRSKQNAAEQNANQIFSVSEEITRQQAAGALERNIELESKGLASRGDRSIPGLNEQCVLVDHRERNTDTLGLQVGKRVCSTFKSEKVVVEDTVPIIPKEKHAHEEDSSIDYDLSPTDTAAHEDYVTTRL
As to the kind of experiment: block of DAMGO-driven TRPC4 calcium entry – cell-based, HEK293 TRPC4/mu-opioid, Fluo-4 calcium, dose response (AID 434942).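 Note: potency of inhibitors blocking the TRPC4 calcium response.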 It counts as functional.

Assay [2] is described as follows: Luminescence Cell-Based Dose Confirmation HTS to Identify Activators of 5'UTR Stem-Loop Driven Alpha-Synuclein mRNA Translation in H4 Neuroglioblastoma Cells. [Related pubchem assays: 1829 (Project Summary), 1814 (Primary HTS)]. It counts as functional.
A short description of assay [3]: Luminescence Cell-Based Dose Response HTS to Identify Activators of Luciferase Translation or Activity in H4 […] Cells. [Related pubchem assays: 1829 (Project Summary), 1814 (Primary HTS)]. The class given is functional.
The subject of a further assay is H4. As to the kind of experiment: Luminescence Cell-Based Dose Response HTS to Identify Activators of 5'UTR Stem-Loop Driven Prion Protein mRNA Translation in H4 Neuroglioblastoma Cells. [Related pubchem assays: 1829 (Project Summary), 1814 (Primary HTS)]. The class given is functional. Conditions: Homo sapiens.
Assay [4] has as its target Induced myeloid leukemia cell differentiation protein Mcl-1 (Homo sapiens, UniProt Q07820). The class given is functional.
The target in assay [5] is T3, Polyadenylate-binding protein 1 (Homo sapiens, UniProt P11940). Description: MLLE domain peptide-binding blockers, IC50 – biochemical, fluorescence polarization, FITC-PAM2 peptide, dose response (AID 602259). As to conditions: read-out: IC50_Mean. The class given is functional. Background: Polarisation of emitted light reports the rotation of a fluorescent probe.
T3 sequence (P11940 whole entry, the tested form may be a part): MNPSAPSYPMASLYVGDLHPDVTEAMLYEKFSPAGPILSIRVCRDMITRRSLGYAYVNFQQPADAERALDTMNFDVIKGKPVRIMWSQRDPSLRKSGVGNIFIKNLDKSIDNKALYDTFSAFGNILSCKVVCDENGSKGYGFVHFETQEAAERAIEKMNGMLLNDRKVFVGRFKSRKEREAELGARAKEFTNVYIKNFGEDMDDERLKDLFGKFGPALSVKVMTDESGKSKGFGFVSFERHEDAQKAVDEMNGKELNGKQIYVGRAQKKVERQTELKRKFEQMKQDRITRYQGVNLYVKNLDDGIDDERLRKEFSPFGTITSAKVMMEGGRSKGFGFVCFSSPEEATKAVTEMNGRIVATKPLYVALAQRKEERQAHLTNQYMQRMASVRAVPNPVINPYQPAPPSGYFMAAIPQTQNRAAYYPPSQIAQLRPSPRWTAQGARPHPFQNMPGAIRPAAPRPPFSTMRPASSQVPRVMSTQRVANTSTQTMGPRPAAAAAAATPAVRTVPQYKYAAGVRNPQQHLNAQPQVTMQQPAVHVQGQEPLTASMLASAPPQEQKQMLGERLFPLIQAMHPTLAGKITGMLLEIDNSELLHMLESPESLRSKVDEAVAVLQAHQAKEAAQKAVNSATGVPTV
The target in assay [6] is T3, Polyadenylate-binding protein 1. Description: MLLE binding blockers, Cy5 peptide tracer – biochemical, fluorescence polarization, Cy5-PAM2 peptide, secondary, miRNA deadenylation inhibitor project, dose response (AID 602260). It counts as functional. As to conditions: read-out: IC50_Mean.
In assay [7] the test system is BJ. Description: BJ-TERT-LT-ST fibroblast viability loss – cell-based, RAS-independent, luminescence, dose response (AID 1935).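 Note: BJ fibroblasts immortalized with TERT plus LT and ST oncogenes.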 It counts as functional. Conditions: Homo sapiens.
Assay [8] has as its system BJ. Description: cells. The class given is functional, cell-based. As to conditions: Homo sapiens.
The subject of assay [9] is BJ. Description: BJ-TERT fibroblast viability loss – cell-based, RAS-independent, luminescence, dose response (AID 1933). It counts as functional. Conditions: Homo sapiens.
Assay [10] is described as follows: DRD fibroblast viability loss – cell-based, non-viral oncogenic, luminescence, dose response (AID 1934). It counts as functional. As to conditions: Homo sapiens.
A further assay addresses Nonstructural protein 1 (Influenza A virus, UniProt Q194T2). It counts as functional, Influenza A virus (A/California/07/2009(H1N1)).
A further assay relates to INS1. As to the kind of experiment: INS-1E survival protection against cytokine death – cell-based, luminescence, retest, dose response (AID 449756).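 Note: cell death triggered by IL-1 beta plus TNF-alpha plus IFN-gamma mixture; protective hits raise ATP signal compared with cytokine alone wells.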 It counts as functional. Conditions: Rattus norvegicus.
In a further assay the target is Fatty acid synthase (Homo sapiens, UniProt P49327). As to the kind of experiment: inhibition of human FAS-TE enzyme activity – biochemical, kinetic fluorescence intensity, dose response (AID 624326).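 Note: rate of fluorescence rise from hydrolysis of a fluorogenic O-methyl fluorescein ester substrate.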 It counts as functional.
Fatty acid synthase, sequence (P49327 whole entry): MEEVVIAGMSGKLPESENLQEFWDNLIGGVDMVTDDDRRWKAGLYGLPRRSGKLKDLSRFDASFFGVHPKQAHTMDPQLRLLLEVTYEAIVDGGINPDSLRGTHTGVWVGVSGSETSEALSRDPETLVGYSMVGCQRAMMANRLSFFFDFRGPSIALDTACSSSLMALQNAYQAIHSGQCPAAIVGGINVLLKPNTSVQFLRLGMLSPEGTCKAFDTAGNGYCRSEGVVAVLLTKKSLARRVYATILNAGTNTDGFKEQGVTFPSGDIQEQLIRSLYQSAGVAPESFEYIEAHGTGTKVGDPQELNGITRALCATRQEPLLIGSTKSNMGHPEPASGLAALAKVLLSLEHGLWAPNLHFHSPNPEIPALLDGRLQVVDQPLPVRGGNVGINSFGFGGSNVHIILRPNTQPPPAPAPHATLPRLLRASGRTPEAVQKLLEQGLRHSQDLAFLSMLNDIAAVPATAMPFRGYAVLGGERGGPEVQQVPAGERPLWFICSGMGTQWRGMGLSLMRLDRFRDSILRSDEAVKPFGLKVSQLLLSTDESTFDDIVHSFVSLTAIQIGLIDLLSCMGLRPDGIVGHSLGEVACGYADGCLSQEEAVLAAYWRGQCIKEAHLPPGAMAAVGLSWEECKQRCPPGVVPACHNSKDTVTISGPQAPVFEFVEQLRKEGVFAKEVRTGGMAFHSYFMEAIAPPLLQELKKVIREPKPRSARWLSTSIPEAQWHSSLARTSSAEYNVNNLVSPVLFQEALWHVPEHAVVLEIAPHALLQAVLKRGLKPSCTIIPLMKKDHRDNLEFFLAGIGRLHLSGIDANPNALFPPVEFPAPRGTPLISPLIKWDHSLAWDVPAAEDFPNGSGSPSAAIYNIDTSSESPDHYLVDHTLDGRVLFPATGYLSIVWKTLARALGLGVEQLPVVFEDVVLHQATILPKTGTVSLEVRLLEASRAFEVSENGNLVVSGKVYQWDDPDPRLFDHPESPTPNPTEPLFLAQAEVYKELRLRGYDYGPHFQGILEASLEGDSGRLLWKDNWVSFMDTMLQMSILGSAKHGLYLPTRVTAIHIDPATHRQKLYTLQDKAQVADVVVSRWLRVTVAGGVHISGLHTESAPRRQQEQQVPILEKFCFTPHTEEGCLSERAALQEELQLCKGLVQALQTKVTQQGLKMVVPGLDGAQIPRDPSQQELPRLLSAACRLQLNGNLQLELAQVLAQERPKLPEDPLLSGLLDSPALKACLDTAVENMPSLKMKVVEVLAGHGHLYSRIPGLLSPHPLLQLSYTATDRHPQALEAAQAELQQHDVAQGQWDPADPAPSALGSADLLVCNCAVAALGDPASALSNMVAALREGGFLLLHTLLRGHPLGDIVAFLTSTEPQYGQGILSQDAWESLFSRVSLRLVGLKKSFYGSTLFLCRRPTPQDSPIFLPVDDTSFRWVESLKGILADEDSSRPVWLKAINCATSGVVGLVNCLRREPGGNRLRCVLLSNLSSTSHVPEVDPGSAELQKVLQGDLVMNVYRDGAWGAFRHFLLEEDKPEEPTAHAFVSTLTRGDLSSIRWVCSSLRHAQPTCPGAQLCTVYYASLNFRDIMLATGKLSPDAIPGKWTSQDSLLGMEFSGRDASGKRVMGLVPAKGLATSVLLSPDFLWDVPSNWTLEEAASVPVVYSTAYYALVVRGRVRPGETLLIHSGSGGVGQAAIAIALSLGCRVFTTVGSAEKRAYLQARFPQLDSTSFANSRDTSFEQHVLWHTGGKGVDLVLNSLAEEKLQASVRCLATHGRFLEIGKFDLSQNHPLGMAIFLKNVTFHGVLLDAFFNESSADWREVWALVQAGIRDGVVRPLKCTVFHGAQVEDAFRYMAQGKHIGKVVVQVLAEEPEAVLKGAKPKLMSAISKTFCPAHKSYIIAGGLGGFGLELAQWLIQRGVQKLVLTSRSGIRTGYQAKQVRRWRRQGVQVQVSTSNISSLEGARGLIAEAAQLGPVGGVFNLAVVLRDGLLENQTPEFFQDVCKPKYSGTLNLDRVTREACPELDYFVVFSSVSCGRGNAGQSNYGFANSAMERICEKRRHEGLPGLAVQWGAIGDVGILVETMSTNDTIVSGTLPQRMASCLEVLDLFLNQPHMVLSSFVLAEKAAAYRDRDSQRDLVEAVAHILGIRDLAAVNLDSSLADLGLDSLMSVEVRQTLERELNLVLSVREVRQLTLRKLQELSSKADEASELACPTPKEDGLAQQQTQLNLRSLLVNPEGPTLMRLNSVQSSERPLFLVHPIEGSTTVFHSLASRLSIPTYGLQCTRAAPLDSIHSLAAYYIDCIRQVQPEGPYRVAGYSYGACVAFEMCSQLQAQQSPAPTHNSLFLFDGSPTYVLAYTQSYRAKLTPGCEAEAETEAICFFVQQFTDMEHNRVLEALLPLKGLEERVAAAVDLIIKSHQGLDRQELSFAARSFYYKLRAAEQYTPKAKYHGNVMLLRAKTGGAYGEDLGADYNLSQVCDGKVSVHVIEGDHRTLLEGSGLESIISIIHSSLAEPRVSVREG
The target in assay [11] is T4, Long-chain-fatty-acid--AMP ligase FadD28 (Mycobacterium tuberculosis, UniProt P9WQ59).
T4 sequence (P9WQ59 whole entry): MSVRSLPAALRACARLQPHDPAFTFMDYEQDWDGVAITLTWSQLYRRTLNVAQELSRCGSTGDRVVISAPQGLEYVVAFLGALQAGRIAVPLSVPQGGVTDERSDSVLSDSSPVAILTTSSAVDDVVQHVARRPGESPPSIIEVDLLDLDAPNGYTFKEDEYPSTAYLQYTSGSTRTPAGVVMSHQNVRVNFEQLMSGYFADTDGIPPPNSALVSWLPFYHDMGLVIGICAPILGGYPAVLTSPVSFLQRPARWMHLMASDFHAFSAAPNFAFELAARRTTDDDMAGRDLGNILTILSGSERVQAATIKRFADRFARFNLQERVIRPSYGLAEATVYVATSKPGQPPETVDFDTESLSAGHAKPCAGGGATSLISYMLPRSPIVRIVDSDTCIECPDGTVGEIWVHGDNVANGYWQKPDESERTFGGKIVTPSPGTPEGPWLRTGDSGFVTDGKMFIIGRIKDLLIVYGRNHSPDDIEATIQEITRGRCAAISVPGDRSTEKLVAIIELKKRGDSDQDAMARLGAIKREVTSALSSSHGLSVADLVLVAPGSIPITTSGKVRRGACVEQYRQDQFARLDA
As to the kind of experiment: Fluorescence polarization aasay to screen for inhibitors that compete for the binding of FadD28 to a bisubstrate Measured in Biochemical System Using Plate Reader - 2147-01_Inhibitor_Dose_CherryPick_Activity. The class given is functional, Mycobacterium tuberculosis H37Rv.

A short description of assay [12]: blockers of HIV-1 envelope-mediated cell-cell fusion – cherry-pick, dose response (AID 652057). The class given is functional, cell-based.
Assay [13] is described as follows: HIV-1 AD8 envelope cell-cell fusion blockers – cherry-pick, dose response (AID 652062).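 Note: luciferase signal from cell-cell fusion driven by HIV-1 clade B AD8 Env; potency is for inhibitors of fusion seen as a drop in luminescence.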 The class given is functional, cell-based.
Assay [14] in a line: NIH-3T3 fibroblast cytotoxicity, dose response, cytotoxicity control, cell-based, fluorescence, Alamar Blue, secondary assay (AID 2327).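 Note: NIH-3T3 mouse fibroblasts cultured with fluconazole at 8 µg/mL.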 The class given is functional. Background: Resazurin is reduced to fluorescent resorufin, in cell work by metabolically active cells.
For the next assay, the target named is Large T antigen (Simian virus 40, UniProt P03070). The class given is functional, Betapolyomavirus macacae.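 Note: Confirmatory-stage PubChem screen for compounds that inhibit SV40 T antigen.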
Large T antigen, sequence (P03070 whole entry): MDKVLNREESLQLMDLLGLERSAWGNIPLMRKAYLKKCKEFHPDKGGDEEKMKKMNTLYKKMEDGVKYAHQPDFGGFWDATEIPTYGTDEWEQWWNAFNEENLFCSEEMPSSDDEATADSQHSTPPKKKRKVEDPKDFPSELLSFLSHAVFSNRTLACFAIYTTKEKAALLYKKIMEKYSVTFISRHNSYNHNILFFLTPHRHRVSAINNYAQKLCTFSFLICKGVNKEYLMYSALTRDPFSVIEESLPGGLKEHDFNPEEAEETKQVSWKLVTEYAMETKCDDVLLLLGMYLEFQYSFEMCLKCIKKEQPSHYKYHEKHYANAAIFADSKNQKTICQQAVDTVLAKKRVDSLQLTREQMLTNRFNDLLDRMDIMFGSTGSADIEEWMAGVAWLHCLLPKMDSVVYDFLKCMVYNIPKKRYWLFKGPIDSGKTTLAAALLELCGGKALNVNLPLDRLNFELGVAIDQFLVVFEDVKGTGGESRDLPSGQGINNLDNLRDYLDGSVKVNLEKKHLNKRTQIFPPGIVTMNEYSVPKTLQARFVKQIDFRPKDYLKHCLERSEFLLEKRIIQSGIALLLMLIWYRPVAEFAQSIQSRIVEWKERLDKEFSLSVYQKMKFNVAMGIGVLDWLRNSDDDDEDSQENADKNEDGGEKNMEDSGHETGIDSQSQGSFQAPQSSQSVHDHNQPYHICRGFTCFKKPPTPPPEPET
For assay [15], the target named is FAD-linked sulfhydryl oxidase ALR (Homo sapiens, UniProt P55789). Description: ALR-catalysed DTT oxidation blockers – biochemical, H2O2 detection, luminescence, cherry-pick, dose response (AID 493248).
FAD-linked sulfhydryl oxidase ALR, sequence (P55789 whole entry): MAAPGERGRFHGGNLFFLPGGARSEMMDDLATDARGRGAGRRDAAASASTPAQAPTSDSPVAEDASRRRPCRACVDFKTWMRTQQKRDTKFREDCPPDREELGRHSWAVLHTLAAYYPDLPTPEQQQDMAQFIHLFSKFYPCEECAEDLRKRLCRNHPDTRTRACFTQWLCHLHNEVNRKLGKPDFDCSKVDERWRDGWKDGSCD
Assay [16] concerns the target DNA dC->dU-editing enzyme APOBEC-3G (Homo sapiens, UniProt Q9HC16). Description: Dose Response confirmation of small molecule APOBEC3G DNA Deaminase Inhibitors via a fluorescence-based single-stranded DNA deaminase assay. [Related pubchem assays (depositor defined):AID493012, AID493028]. The class given is functional.
Assay [17] is described as follows: fluconazole-exposed Candida albicans growth modulators – fluorescence, retest, confirmation (AID 2467). It counts as functional, cell-based.

For orientation: EC50 means the concentration at which the effect is half-maximal. The AC50 is the concentration giving half of the maximal activity seen.

DNA dC->dU-editing enzyme APOBEC-3G, sequence (Q9HC16 whole entry): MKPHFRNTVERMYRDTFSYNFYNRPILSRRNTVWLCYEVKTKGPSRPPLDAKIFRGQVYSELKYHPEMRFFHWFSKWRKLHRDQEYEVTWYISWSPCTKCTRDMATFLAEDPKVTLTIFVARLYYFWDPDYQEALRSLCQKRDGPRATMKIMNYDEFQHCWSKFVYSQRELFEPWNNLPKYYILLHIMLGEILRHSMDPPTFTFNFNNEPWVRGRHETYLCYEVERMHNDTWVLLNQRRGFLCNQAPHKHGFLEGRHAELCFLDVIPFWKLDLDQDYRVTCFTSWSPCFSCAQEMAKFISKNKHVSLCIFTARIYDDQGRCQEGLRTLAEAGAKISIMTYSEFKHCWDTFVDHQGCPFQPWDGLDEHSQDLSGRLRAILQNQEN
Nonstructural protein 1, sequence (Q194T2 whole entry): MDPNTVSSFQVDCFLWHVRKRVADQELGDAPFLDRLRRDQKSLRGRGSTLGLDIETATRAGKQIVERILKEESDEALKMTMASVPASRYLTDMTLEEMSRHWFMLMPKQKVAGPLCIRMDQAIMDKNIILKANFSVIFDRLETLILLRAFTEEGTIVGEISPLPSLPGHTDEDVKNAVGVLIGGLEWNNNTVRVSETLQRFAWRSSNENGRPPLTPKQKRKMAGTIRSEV
Induced myeloid leukemia cell differentiation protein Mcl-1, sequence (Q07820 whole entry, the tested form may be a part): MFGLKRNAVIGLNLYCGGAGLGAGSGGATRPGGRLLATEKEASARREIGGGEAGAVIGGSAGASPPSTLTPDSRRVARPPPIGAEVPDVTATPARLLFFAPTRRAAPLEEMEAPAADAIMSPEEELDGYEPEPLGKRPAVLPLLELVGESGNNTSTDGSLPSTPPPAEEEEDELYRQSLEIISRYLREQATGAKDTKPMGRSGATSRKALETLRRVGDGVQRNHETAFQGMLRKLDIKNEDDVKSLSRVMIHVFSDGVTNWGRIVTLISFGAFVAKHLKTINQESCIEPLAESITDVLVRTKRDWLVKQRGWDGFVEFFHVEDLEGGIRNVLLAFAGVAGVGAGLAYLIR

For the compound `CCc1nc2ccccc2n1CC(=O)N(C(C)CC)C1CCS(=O)(=O)C1` (stereo not drawn), the IC50 on Protein skinhead-1 was > 100 µM (inactive).
The same measure, in the same setting: the value for `COC(=O)c1cn(NC(=O)C2COc3ccccc3O2)c(=O)c2ccccc12` (stereo not drawn) was > 100 µM (inactive).
With `Cn1c(-c2ccc(F)cc2)cnc1NCc1ccc(F)cc1F`, the EC50 in assay [1] was 2.66 µM (active).
With `O=C(CSc1nc(O)c(C2CCCCC2)c(O)n1)NCC1CCCO1` (stereo not drawn), the IC50 at Protein skinhead-1 is > 100 µM (inactive).
With `CC(Sc1nnc(-c2cccnc2)n1-c1ccccc1)C(=O)NCc1ccc2c(c1)OCO2` (stereo not drawn), the EC50 in assay [2] is 9.46 µM (active); in assay [3], 16.5 µM (active); in the assay with H4, 38 µM (active).
Turning to `CNc1sc(C(=O)c2ccccc2F)c(N)c1-c1nc2ccccc2s1`, the IC50 in assay [4] is 4.92 µM (active); in [5], 49.5 µM (inactive); in assay [6] it was > 66 µM (inactive).
As for `CCC(c1nnnn1CCOC)N1CCN(Cc2ccccc2)CC1` (stereo not drawn), at Protein skinhead-1, the IC50 is > 100 µM (inactive).
Still for that read-out and setting: the value for `COC(=O)CSc1nnc(SCc2ccc(OC)cc2)s1` was > 100 µM (inactive).
As for `CC(NC(=O)c1ccco1)C(c1cccs1)N1CCN(c2ccccc2)CC1` (stereo not drawn), the EC50 in [1] is 0.376 µM (active).
Regarding `O=C(Nc1cccc2ccccc12)c1onc2c1CCCC2`, the figures for the EC50 (in assay [2]; in assay [3]; in the assay on H4) were 0.192 µM (active), 78.7 µM (active) and > 120 µM (not active), respectively.
For `CC(C)CN=C(S)NC1CC2CCCC(C1)N2C1CCCCC1` (stereo not drawn), in that order: > 120 µM (not active), > 120 µM (not active) and 44.3 µM (active).
`O=C(Cn1c2ccccc2c(=O)c2cc([N+](=O)[O-])ccc21)Nc1ccccc1Cl`: the EC50 was > 75 µM (inconclusive) in the assay with BJ [7], > 150 µM (not active) in the assay on BJ [8], > 150 µM (not active) in the assay with BJ [9] and > 150 µM (inconclusive) in assay [10].
Turning to `CC1=NN(c2ccccc2)C(=O)/C1=C/c1ccc[nH]1`, on Nonstructural protein 1, the IC50 is 33 µM (active).
Regarding `O=C(Nc1ccc2c(c1)OCO2)c1ccc(Br)o1`, the EC50 is 0.165 µM (active) in [2], > 120 µM (not active) in [3] and > 120 µM (not active) in the assay with H4.
In the case of `CCn1c(=O)c([N+](=O)[O-])c(N2CCN(Cc3ccc4c(c3)OCO4)CC2)c2ccccc21`, the AC50 with INS1 is 26.1 µM (active). Moreover, the IC50 at Fatty acid synthase is 1.8 µM (active).
On to `CSC(=NCCCN1CCOCC1)NS(=O)(=O)c1cccs1`, for which the IC50 at Protein skinhead-1 is > 100 µM (inactive).
Consider `Cc1ccc(C(C(=O)NC(C)(C)C)N(C(=O)CCC(=O)Nc2ccccn2)c2ccccc2F)cc1` (stereo not drawn), for which the EC50 in assay [1] is 2.99 µM (active).
Consider `COc1ccc(C(=O)NCCc2c[nH]c3ccccc23)cc1S(=O)(=O)N1CCCCC1C` (stereo not drawn), for which, in [11], the AC50 is 2.97 µM (active).
The same measure, in the same setting: the value for `CCc1nc2ccc(C(=O)NCCCn3ccnc3)cn2c1N(C)Cc1cc2ccccc2s1` was 74.3 µM (active).
As to `CC(C)NC(=O)Nc1ccc2c(c1)C(=O)N([C@H](C)CO)C[C@@H](C)[C@@H](CN(C)C(=O)CCC(F)(F)F)OCCCC[C@@H](C)O2`, the figures for the AC50 in assay [12] and in [13] were < 0.26 µM (active) and 1.02 µM (active), respectively.
`Cc1cccc(S(=O)(=O)N/N=c2\sc3ccccc3n2C)c1`: the figures for the EC50 (in assay [2]; in assay [3]; in the assay on H4) were 5.13 µM (active), 10.1 µM (active) and 23.2 µM (active), respectively.
On to `Oc1ccc(/C=N/n2c(S)nnc2COc2ccccc2)cc1O`, for which the EC50 was 24.6 µM (active) in assay [14] and > 38 µM (not active) in [17]. The IC50 is 6.29 µM (active) at Large T antigen and 2.1 µM (active) in [16]. Besides, the AC50 in assay [15] was 0.005 µM (active).
